Measurements published in patent US9611251B2, “Substituted piperidine compounds and their use as orexin receptor modulators” (Janssen Pharmaceutica NV, priority 2013, dated 2017).

Assays:
rat orexin 1 receptor = rat orexin 1 receptor (Rattus norvegicus, UniProt P56718); experiment: Rat orexin 1 receptor radioligand binding; details: rat orexin 1 receptor radioligand binding; averages of 2-20 runs; read-out: rOX1 Ki
Method: (§1) Data are analyzed using pc-Sandy macro and graphed on Graphpad Prism 5. For analysis, each concentration point is averaged from triplicate values and the averaged values are plotted on Graphpad Prism. The IC50 was determined by applying the following equation (GraphPad Prism 5.0, SanDiego) for one site competition where X=log (concentration) and Y=specific binding. Top denotes the total [^3H]-(1-(5-(2-fluoro-phenyl)-2-methyl-thiazol-4-yl)-1-((S)-2-(5-phenyl-(1,3,4)oxadiazol-2-ylmethyl)-pyrrolidin-1-yl)-methanone) binding, bottom denotes the nonspecific [^3H]-(1-(5-(2-fluoro-phenyl)-2-methyl-thiazol-4-yl)-1-((S)-2-(5-phenyl-(1,3,4)oxadiazol-2-ylmethyl)-pyrrolidin-1-yl)-methanone) binding. Graphpad Prism calculates Ki value from IC50 and the pre-determined Kd values for [^3H]-(1-(5-(2-fluoro-phenyl)-2-methyl-thiazol-4-yl)-1-((S)-2-(5-phenyl-(1,3,4)oxadiazol-2-ylmethyl)-pyrrolidin-1-yl)-methanone) and [3H]-EMPA. The Ki for each compound is then uploaded into 3DX. Each run comprises individual compounds in triplicate.
(§2) Rat and Human Orexin 1 Receptor Radioligand Binding Studies
After centrifugation (2K×G, 5 min at 4° C.), the supernatant was aspirated and the pellets frozen and stored at −80° C. […] Each cell pellet from a 15 cm plate was resuspended in 10 mL, stored on ice, and homogenized for 45 sec prior to addition to the reactions. Competition binding experiments in 96 well polypropylene plates were performed using [^3H]-(1-(5-(2-fluoro-phenyl)-2-methyl-thiazol-4-yl)-1-((S)-2-(5-phenyl-(1,3,4)oxadiazol-2-ylmethyl)-pyrrolidin-1-yl)-methanone) (Moraveck Corporation, specific activity=35.3 Ci/mmol), diluted to a 10 nM concentration in PBS (4 nM final). […] The final concentration of DMSO in the reactions is equal to or less than 0.1%. Total and nonspecific binding was determined in the absence and presence of 10 μM almorexant. The total volume of each reaction is 200 μL (20 μL of diluted compounds, 80 μL of [^3H]-(1-(5-(2-fluoro-phenyl)-2-methyl-thiazol-4-yl)-1-((S)-2-(5-phenyl-(1,3,4)oxadiazol-2-ylmethyl)-pyrrolidin-1-yl)-methanone) diluted in PBS and 100 μL of the cell suspension). […] The plates were washed 3 times by aspirating 30 ml PBS through the plates. Plates were dried in 55° C. oven for 60 min, scintillation fluid was added, and the radioactivity was counted on a Topcount (Packard).

human orexin 1 receptor = human orexin 1 receptor (Homo sapiens, UniProt O43613); experiment: Human orexin 1 receptor radioligand binding; details: human orexin 1 receptor radioligand binding; averages of 2-20 runs; read-out: hOX1 Ki
Method: The in vitro affinity of the compounds of the invention for the rat/human orexin 1 and human orexin 2 receptors was determined by competitive radioligand binding using [^3H](1-(5-(2-fluoro-phenyl)-2-methyl-thiazol-4-yl)-1-((S)-2-(5-phenyl-(1,3,4)oxadiazol-2-ylmethyl)-pyrrolidin-1-yl)-methanone) (Langmead et al., 2004) and [^3H]EMPA (n-ethyl-2[96-methoxypyridin-3-yl)-(toluene-2-sulfonyl)-amino]-N-pyridin-3-ylmethyl acetamide), respectively (Langmead et al., 2004, British Journal of Pharmacology 141:340-346; Malherbe et al., 2004, British Journal of Pharmacology 156:1326-41).
as §1, §2
Human Embryonic Kidney 293 cells (HEK293) stably expressing rat orexin 1 receptor (Genebank accession number NM_001525) or Chinese ovary cells (CHO) stably expressing human orexin 1 receptor (Genebank accession number NM_001526) were grown to confluency in DMEM (Hyclone, cat #SH30022), 10% FBS, 1×Pen/Strep, 1× sodium pyruvate, 10 mM HEPES, 600 μg/mL G418 and DMEM/F12 (Gibco, Cat #11039), 10% FBS, 1×Pen/Strep, 600 μg/mL G418 media, respectively on 150 cm^2 tissue culture plates, washed with 5 mM EDTA in PBS (HyClone Dulbecco's Phosphate Buffered Saline 1× with Calcium and Magnesium, Cat #SH30264.01, hereafter referred to simply as PBS) and scraped into 50 ml tubes. After centrifugation (2K×G, 5 min at 4° C.), the supernatant was aspirated and the pellets frozen and stored at −80° C. Cells were resuspended in PBS in the presence of 1 tablet of protease inhibitor cocktail (Roche, Cat. #11836145001) per 50 mL. Each cell pellet from a 15 cm plate was resuspended in 10 mL, stored on ice, and homogenized for 45 sec prior to addition to the reactions. Competition binding experiments in 96 well polypropylene plates were performed using [^3H]-(1-(5-(2-fluoro-phenyl)-2-methyl-thiazol-4-yl)-1-((S)-2-(5-phenyl-(1,3,4)oxadiazol-2-ylmethyl)-pyrrolidin-1-yl)-methanone) (Moraveck Corporation, specific activity=35.3 Ci/mmol), diluted to a 10 nM concentration in PBS (4 nM final). […] The final concentration of DMSO in the reactions is equal to or less than 0.1%. Total and nonspecific binding was determined in the absence and presence of 10 μM almorexant. The total volume of each reaction is 200 μL (20 μL of diluted compounds, 80 μL of [^3H]-(1-(5-(2-fluoro-phenyl)-2-methyl-thiazol-4-yl)-1-((S)-2-(5-phenyl-(1,3,4)oxadiazol-2-ylmethyl)-pyrrolidin-1-yl)-methanone) diluted in PBS and 100 μL of the cell suspension). Reactions were run for 60 min at room temperature and terminated by filtration through GF/C filter plates (PerkinElmer, Cat. #6005174) presoaked in 0.3% polyethylenimine using the cell harvester (PerkinElmer Filtermate). The plates were washed 3 times by aspirating 30 ml PBS through the plates. Plates were dried in 55° C. oven for 60 min, scintillation fluid was added, and the radioactivity was counted on a Topcount (Packard).

human orexin 2 receptor = human orexin 2 receptor (Homo sapiens (Human), UniProt O43614); experiment: Human orexin 2 receptor radioligand binding ([3H]-EMPA); details: averages of 2-20 runs, read-out: hOX2 Ki
Method: as §1
Human Orexin 2 Receptor Radioligand Binding Studies
HEK293 stably expressing human orexin 2 receptor (Genebank accession number NM_001526) were grown to confluency in DMEM (Hyclone, cat #SH30022), 10% FBS, 1×Pen/Strep, 1× NaPyruvate, 10 mM HEPES, 600 ug/ml G418 media on 150 cm^2 tissue culture plates, washed with 5 mM EDTA in PBS (HyClone Dulbecco's Phosphate Buffered Saline 1× with Calcium and Magnesium, Cat #SH30264.01, hereafter referred to simply as PBS) and scraped into 50 ml tubes. After centrifugation (2K×G, 5 min at 4° C.), the supernatant was aspirated and the pellets frozen and stored at −80° C. […] Each cell pellet from a 15 cm plate was resuspended in 10 mL, stored on ice, and homogenized for 45 sec just prior to addition to the reactions. Competition binding experiments in 96 well polypropylene plates were performed using [^3H]-EMPA (Moraveck Corporation, specific activity=29.6 Ci/mmol), diluted to a 5 nM concentration in PBS (2 nM final concentration). […] The final concentration of DMSO in the reactions is equal to or less than 0.1%. Total and nonspecific binding was determined in the absence and presence of 10 μM almorexant. The total volume of each reaction is 200 μL (20 μL of diluted compounds, 80 μL of [^3H]-EMPA diluted in PBS and 100 μL of the cell suspension). […] The plates were washed 3 times by aspirating 30 ml PBS through the plates. Plates were dried in 55° C. oven for 60 min, scintillation fluid was added, and the radioactivity was counted on a Topcount (Packard).

human orexin 2 receptor, sequence (O43614 whole entry): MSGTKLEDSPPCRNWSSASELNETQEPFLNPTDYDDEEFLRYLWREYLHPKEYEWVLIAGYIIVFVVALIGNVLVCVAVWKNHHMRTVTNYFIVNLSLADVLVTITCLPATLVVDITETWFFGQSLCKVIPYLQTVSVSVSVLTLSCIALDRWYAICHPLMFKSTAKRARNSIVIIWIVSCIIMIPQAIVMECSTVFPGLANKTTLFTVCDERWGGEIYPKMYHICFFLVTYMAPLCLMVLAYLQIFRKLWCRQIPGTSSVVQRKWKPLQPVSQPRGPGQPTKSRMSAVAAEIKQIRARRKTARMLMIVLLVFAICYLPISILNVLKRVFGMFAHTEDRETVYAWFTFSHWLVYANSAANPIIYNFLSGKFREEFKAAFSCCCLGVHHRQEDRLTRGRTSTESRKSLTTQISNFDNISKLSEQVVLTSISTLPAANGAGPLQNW

Structure (SMILES) | Ki (rat orexin 1 receptor) [nM] | Ki (human orexin 1 receptor) [nM] | Ki (human orexin 2 receptor) [nM]
COc1ccc(C(=O)N2CCC[C@@H](Nc3ccc(Cl)cn3)[C@@H]2C)c(-n2nccn2)c1 (relative stereo) [Example 181, ((2S*,3R*)-3-((5-chloropyridin-2-yl)amino)-2-methylpiperidin-1-yl)(4-methoxy-2-(2H-1,2,3-triazol-2-yl)phenyl)methanone] | 93 | 176 | 5200
COc1ccc(-n2nccn2)c(C(=O)N2CCC[C@@H](Nc3cnc(C(F)(F)F)cn3)[C@@H]2C)c1 (relative stereo) [Example 184, (5-methoxy-2-(2H-1,2,3-triazol-2-yl)phenyl)((2S*,3R*)-2-methyl-3-((5-(trifluoromethyl)pyrazin-2-yl)amino)piperidin-1-yl)methanone] | 7 | 6 | 191
Cc1cnc(C(=O)N2CCC[C@@H](N(C)c3nc4ccccc4o3)[C@@H]2C)c(-n2nccn2)c1 (relative stereo) [Example 187, ((2S*,3R*)-3-(benzo[d]oxazol-2-yl(methyl)amino)-2-methylpiperidin-1-yl)(5-methyl-3-(2H-1,2,3-triazol-2-yl)pyridin-2-yl)methanone] | 20 | 39 | 
Cc1ccc(C(=O)N2CCC[C@@H](N(C)c3ccc(C(F)(F)F)cn3)[C@@H]2C)c(-n2nccn2)n1 (relative stereo) [Example 188, (6-methyl-2-(2H-1,2,3-triazol-2-yl)pyridin-3-yl)((2S*,3R*)-2-methyl-3-(methyl(5-(trifluoromethyl)pyridin-2-yl)amino)piperidin-1-yl)methanone] | 92 | 100 | > 10000
C[C@H]1[C@H](Nc2ccc(C(F)(F)F)cn2)CCCN1C(=O)c1cccc(F)c1-c1ncccn1 (relative stereo) [Example 189, (3-fluoro-2-(pyrimidin-2-yl)phenyl)((2S*,3R*)-2-methyl-3-((5-(trifluoromethyl)pyridin-2-yl)amino)piperidin-1-yl)methanone] | 7 | 5 | 175
Cc1noc(-c2cc(F)ccc2C(=O)N2CCC[C@@H](Nc3ccc(C(F)(F)F)cn3)[C@@H]2C)n1 (relative stereo) [Example 190, (4-fluoro-2-(3-methyl-1,2,4-oxadiazol-5-yl)phenyl)((2S*,3R*)-2-methyl-3-((5-(trifluoromethyl)pyridin-2-yl)amino)piperidin-1-yl)methanone] | 26 | 18 | 
C[C@H]1[C@H](Nc2ccc(C(F)(F)F)cn2)CCCN1C(=O)c1ccc(F)cc1-c1ncccn1 (relative stereo) [Example 191, (4-fluoro-2-(pyrimidin-2-yl)phenyl)((2S*,3R*)-2-methyl-3-((5-(trifluoromethyl)pyridin-2-yl)amino)piperidin-1-yl)methanone] | 12 | 9 | 421
C[C@H]1[C@H](Nc2ccc(C(F)(F)F)cn2)CCCN1C(=O)c1ccc(F)cc1-n1nccn1 (relative stereo) [Example 192, (4-fluoro-2-(2H-1,2,3-triazol-2-yl)phenyl)((2S*,3R*)-2-methyl-3-((5-(trifluoromethyl)pyridin-2-yl)amino)piperidin-1-yl)methanone] | 27 | 25 | 543
C[C@H]1[C@H](Nc2ncc(C(F)(F)F)cn2)CCCN1C(=O)c1ccc(F)cc1-n1nccn1 (relative stereo) [Example 198, (4-fluoro-2-(2H-1,2,3-triazol-2-yl)phenyl)((2S*,3R*)-2-methyl-3-((5-(trifluoromethyl)pyrimidin-2-yl)amino)piperidin-1-yl)methanone] | 119 | 92 | 2500
CCOc1ccc(C)nc1C(=O)N1CCC[C@@H](Nc2ncc(C(F)(F)F)cn2)[C@@H]1C (relative stereo) [Example 199, (3-ethoxy-6-methylpyridin-2-yl)((2S*,3R*)-2-methyl-3-((5-(trifluoromethyl)pyrimidin-2-yl)amino)piperidin-1-yl)methanone] | 154 | 206 | 2400
C[C@H]1[C@H](Nc2nc3ccccc3o2)CCCN1C(=O)c1cccc(F)c1-c1ncccn1 (relative stereo) [Example 204, ((2S*,3R*)-3-(benzo[d]oxazol-2-ylamino)-2-methylpiperidin-1-yl)(3-fluoro-2-(pyrimidin-2-yl)phenyl)methanone] | 14 | 16 | 292
Cc1ccc(C(=O)N2CCC[C@@H](Nc3ccc(C(F)(F)F)cn3)[C@@H]2C)c(-n2nccn2)n1 [Example 98, (6-methyl-2-(2H-1,2,3-triazol-2-yl)pyridin-3-yl)((2S,3R)-2-methyl-3-((5-(trifluoromethyl)pyridin-2-yl)amino)piperidin-1-yl)methanone] | 24 | 21 | 
